Here are results for 16 compounds from US20250381243A1, “HETEROCYCLES AND USES THEREOF” (Kumquat Biosciences Inc., priority 2022, published 2025).

As a reminder, the IC50 is the concentration needed to halve the response being measured.

SMILES strings stand for the structures.

One assay has as its system A549 cells. Kind of assay: Cell proliferation assay (CellTiter-Glo), cells with K-Ras G12S mutation. The format is cell-based. As to conditions: Homo sapiens, 500 nM to 5 μM (mixed units), read-out: Inhibition of A549 Cells (IC50). In a few lines: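 A549 (K-Ras G12S) cells in RPMI-1640 with 10% heat-inactivated FBS, plated in standard or ultra-low-attachment 384-well format, treated next day with a dilution series (e.g., 10-point, 3-fold). Viability read by CellTiter-Glo luminescence about 6 days later; IC50 from four-parameter fit.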
For the compound `N#Cc1c(N)sc2c(F)ccc(-c3c(Cl)cc4c(N5CCCC(N(C(=O)n6cnc(Cl)n6)C6CC6)C5)nc(OC[C@@]56CCCN5C[C@H](F)C6)nc4c3F)c12` (stereo partly drawn) [Compound 151, N-(1-(7-(2-amino-3-cyano-7-fluorobenzo[b]thiophen-4-yl)-6-chloro-8-fluoro-2-(((2R,7aS)-2-fluorotetrahydro-1H-pyrrolizin-7a(5H)-yl)methoxy)quinazolin-4-yl)piperidin-3-yl)-3-chloro-N-cyclopropyl-1H-1,2,4-triazole-1-carboxamide], the 50% inhibitory concentration (IC50) was in the range of 500 to 5000 nM.

Turning to `CC(C)[C@H]1N(C(=O)n2cnc(Cl)n2)C[C@]12CC[C@@H](C)N(c1nc(OC[C@@]34CCCN3C[C@H](F)C4)nc3c(F)c(-c4ccc(F)c5sc(N)c(C#N)c45)c(Cl)cc13)C2` [Compound 153, 2-amino-4-(6-chloro-4-((1R,4R,7R)-2-(3-chloro-1H-1,2,4-triazole-1-carbonyl)-1-isopropyl-7-methyl-2,6-diazaspiro[3.5]nonan-6-yl)-8-fluoro-2-(((2R,7aS)-2-fluorotetrahydro-1H-pyrrolizin-7a(5H)-yl)methoxy)quinazolin-7-yl)-7-fluorobenzo[b]thiophene-3-carbonitrile], the IC50 was 500 to 5000 nM.

Turning to `N#Cc1c(N)sc2c(F)ccc(-c3c(Cl)cc4c(N5CCOC6(C5)CN(C(=O)n5cncn5)C6C5CC5)nc(OC[C@@]56CCCN5C[C@H](F)C6)nc4c3F)c12` (stereo partly drawn) [Compound 156, 2-amino-4-(6-chloro-4-(1-cyclopropyl-2-(1H-1,2,4-triazole-1-carbonyl)-5-oxa-2,8-diazaspiro[3.5]nonan-8-yl)-8-fluoro-2-(((2R,7aS)-2-fluorotetrahydro-1H-pyrrolizin-7a(5H)-yl)methoxy)quinazolin-7-yl)-7-fluorobenzo[b]thiophene-3-carbonitrile], the IC50 is 500 to 5000 nM.

As for `N#CCCN(C(=O)n1cncn1)C1CCCN(c2nc(OC[C@@]34CCCN3C[C@H](F)C4)nc3c(F)c(-c4ccc(F)c5sc(N)c(C#N)c45)c(Cl)cc23)CC1` (stereo partly drawn) [Compound 166, N-(1-(7-(2-amino-3-cyano-7-fluorobenzo[b]thiophen-4-yl)-6-chloro-8-fluoro-2-(((2R,7aS)-2-fluorotetrahydro-1H-pyrrolizin-7a(5H)-yl)methoxy)quinazolin-4-yl)azepan-4-yl)-N-(2-cyanoethyl)-1H-1,2,4-triazole-1-carboxamide], the IC50 lay within 500 to 5000 nM.

In the case of `CC([C@H]1CCN1C(=O)n1cnc(Cl)n1)N(C)c1nc(OC[C@@]23CCCN2C[C@H](F)C3)nc2c(F)c(-c3ccc(F)c4sc(N)c(C#N)c34)c(Cl)cc12` (stereo partly drawn) [Compound 172, (4R)-2-amino-4-(6-chloro-4-((1-(1-(3-chloro-1H-1,2,4-triazole-1-carbonyl)azetidin-2-yl)ethyl)(methyl)amino)-8-fluoro-2-(((2R,7aS)-2-fluorotetrahydro-1H-pyrrolizin-7a (5H)-yl)methoxy)quinazolin-7-yl)-7-fluorobenzo[b]thiophene-3-carbonitrile], the IC50 lay within 500 to 5000 nM.

Staying with this assay, now noted: Homo sapiens, ≤500 nM, read-out: Inhibition of A549 Cells (IC50).
On to `CN(C[C@@H]1CN(C(=O)n2cnc(F)n2)[C@@H]1C(C)(C)C)c1nc(OC[C@@]23CCCN2C[C@H](F)C3)nc2c(F)c(-c3ccc(F)c4sc(N)c(C#N)c34)c(Cl)cc12` [Compound 152, 2-amino-4-(4-((((2S,3R)-2-(tert-butyl)-1-(3-fluoro-1H-1,2,4-triazole-1-carbonyl)azetidin-3-yl)methyl)(methyl)amino)-6-chloro-8-fluoro-2-(((2R,7aS)-2-fluorotetrahydro-1H-pyrrolizin-7a(5H)-yl)methoxy)quinazolin-7-yl)-7-fluorobenzo[b]thiophene-3-carbonitrile], for which the half-inhibitory concentration (IC50) is no more than 500 nM.

`CCN(C[C@@H]1CN(C(=O)n2cnc(Cl)n2)[C@@H]1C(C)C)c1nc(OC[C@@]23CCCN2C[C@H](F)C3)nc2c(F)c(-c3ccc(F)c4sc(N)c(C#N)c34)c(Cl)cc12` [Compound 154, 2-amino-4-(6-chloro-4-((((2R,3R)-1-(3-chloro-1H-1,2,4-triazole-1-carbonyl)-2-isopropylazetidin-3-yl)methyl)(ethyl)amino)-8-fluoro-2-(((2R,7aS)-2-fluorotetrahydro-1H-pyrrolizin-7a(5H)-yl)methoxy)quinazolin-7-yl)-7-fluorobenzo[b]thiophene-3-carbonitrile]: the IC50 is no more than 500 nM.

Turning to `CC(C)[C@H]1N(C(=O)n2cnc(C(F)(F)F)n2)C[C@@]12CN(c1nc(OC[C@@]34CCCN3C[C@H](F)C4)nc3c(F)c(-c4ccc(F)c5sc(N)c(C#N)c45)c(Cl)cc13)CCO2` [Compound 160, 2-amino-4-(6-chloro-8-fluoro-2-(((2R,7aS)-2-fluorotetrahydro-1H-pyrrolizin-7a(5H)-yl)methoxy)-4-((1R,4S)-1-isopropyl-2-(3-(trifluoromethyl)-1H-1,2,4-triazole-1-carbonyl)-5-oxa-2,8-diazaspiro[3.5]nonan-8-yl)quinazolin-7-yl)-7-fluorobenzo[b]thiophene-3-carbonitrile], the IC50 was no more than 500 nM.

Turning to `CN(C(=O)n1cncn1)C1CCCCN(c2nc(OC[C@@]34CCCN3C[C@H](F)C4)nc3c(F)c(-c4ccc(F)c5sc(N)c(C#N)c45)c(Cl)cc23)C1` (stereo partly drawn) [Compound 161, N-(1-(7-(2-amino-3-cyano-7-fluorobenzo[b]thiophen-4-yl)-6-chloro-8-fluoro-2-(((2R,7aS)-2-fluorotetrahydro-1H-pyrrolizin-7a(5H)-yl)methoxy)quinazolin-4-yl)azepan-3-yl)-N-methyl-1H-1,2,4-triazole-1-carboxamide], the IC50 was no more than 500 nM.

Turning to `CC(C)[C@H]1N(C(=O)n2cnc(C(F)F)n2)C[C@]12CCCN(c1nc(OC[C@@]34CCCN3C[C@H](F)C4)nc3c(F)c(-c4ccc(F)c5sc(N)c(C#N)c45)c(Cl)cc13)C2` [Compound 165, 2-amino-4-(6-chloro-4-((1R,4R)-2-(3-(difluoromethyl)-1H-1,2,4-triazole-1-carbonyl)-1-isopropyl-2,6-diazaspiro[3.5]nonan-6-yl)-8-fluoro-2-(((2R,7aS)-2-fluorotetrahydro-1H-pyrrolizin-7a(5H)-yl)methoxy)quinazolin-7-yl)-7-fluorobenzo[b]thiophene-3-carbonitrile], the IC50 is no more than 500 nM.

`CC(C)C1N(C(=O)n2cnc(Cl)n2)CC12CCCN(c1nc(OC[C@@]34CCCN3C[C@H](F)C4)nc3c(F)c(-c4ccc(F)c5sc(N)c(C#N)c45)c(Cl)cc13)C2` (stereo partly drawn) [Compound 175, 2-amino-4-(6-chloro-4-(2-(3-chloro-1H-1,2,4-triazole-1-carbonyl)-1-isopropyl-2,6-diazaspiro[3.5]nonan-6-yl)-8-fluoro-2-(((2R,7aS)-2-fluorotetrahydro-1H-pyrrolizin-7a(5H)-yl)methoxy)quinazolin-7-yl)-7-fluorobenzo[b]thiophene-3-carbonitrile]: the IC50 was no more than 500 nM.

As to `CCN(C(=O)n1cncn1)C1CCN(c2nc(OC[C@@]34CCCN3C[C@H](F)C4)nc3c(F)c(-c4ccc(F)c5sc(N)c(C#N)c45)c(Cl)cc23)C1` (stereo partly drawn) [Compound 177, N-(1-(7-(2-amino-3-cyano-7-fluorobenzo[b]thiophen-4-yl)-6-chloro-8-fluoro-2-(((2R,7aS)-2-fluorotetrahydro-1H-pyrrolizin-7a(5H)-yl)methoxy)quinazolin-4-yl)pyrrolidin-3-yl)-N-ethyl-1H-1,2,4-triazole-1-carboxamide], the IC50 is no more than 500 nM.

As for `CC1([C@H]2N(C(=O)n3cnc(Cl)n3)C[C@]23CCCN(c2nc(OC[C@@]45CCCN4C[C@H](F)C5)nc4c(F)c(-c5ccc(F)c6sc(N)c(C#N)c56)c(Cl)cc24)C3)CC1` [Compound 179, 2-amino-4-(6-chloro-4-((1R,4R)-2-(3-chloro-1H-1,2,4-triazole-1-carbonyl)-1-(1-methylcyclopropyl)-2,6-diazaspiro[3.5]nonan-6-yl)-8-fluoro-2-(((2R,7aS)-2-fluorotetrahydro-1H-pyrrolizin-7a(5H)-yl)methoxy)quinazolin-7-yl)-7-fluorobenzo[b]thiophene-3-carbonitrile], the concentration for half-maximal inhibition (IC50) is no more than 500 nM.

On to `CC(C)N(C(=O)n1cncn1)[C@H]1CCN(c2nc(OC[C@@]34CCCN3C[C@H](F)C4)nc3c(F)c(-c4ccc(F)c5sc(N)c(C#N)c45)c(Cl)cc23)C1` [Compound 180, N-((3S)-1-(7-(2-amino-3-cyano-7-fluorobenzo[b]thiophen-4-yl)-6-chloro-8-fluoro-2-(((2R,7aS)-2-fluorotetrahydro-1H-pyrrolizin-7a(5H)-yl)methoxy)quinazolin-4-yl)pyrrolidin-3-yl)-N-isopropyl-1H-1,2,4-triazole-1-carboxamide], for which the IC50 is no more than 500 nM.

In the case of `CC1N(C(=O)n2cncn2)CC12CCCN(c1nc(OC[C@@]34CCCN3C[C@H](F)C4)nc3c(F)c(-c4ccc(F)c5sc(N)c(C#N)c45)c(Cl)cc13)C2` (stereo partly drawn) [Compound 182, 2-amino-4-(6-chloro-8-fluoro-2-(((2R,7aS)-2-fluorotetrahydro-1H-pyrrolizin-7a(5H)-yl)methoxy)-4-(1-methyl-2-(1H-1,2,4-triazole-1-carbonyl)-2,6-diazaspiro[3.5]nonan-6-yl)quinazolin-7-yl)-7-fluorobenzo[b]thiophene-3-carbonitrile], the half-inhibitory concentration (IC50) is no more than 500 nM.

In the case of `CC(C)[C@H]1N(C(=O)n2cnc(F)n2)C[C@]12CCCN(c1nc(OC[C@@]34CCCN3C[C@H](F)C4)nc3c(F)c(-c4ccc(F)c5sc(N)c(C#N)c45)c(Cl)cc13)C2` [Compound 184, 2-amino-4-(6-chloro-8-fluoro-4-((1R,4R)-2-(3-fluoro-1H-1,2,4-triazole-1-carbonyl)-1-isopropyl-2,6-diazaspiro[3.5]nonan-6-yl)-2-(((2R,7aS)-2-fluorotetrahydro-1H-pyrrolizin-7a(5H)-yl)methoxy)quinazolin-7-yl)-7-fluorobenzo[b]thiophene-3-carbonitrile], the half-inhibitory concentration (IC50) was no more than 500 nM.
